In patent US20040082635A1, “Fused cyclic compounds and medicinal use thereof” (priority 2001, published 2004):
Structures can show the parent of a compound that is named as a salt.

Molecular target: T1, HCV polymerase (Hepatitis C virus genotype 1b, UniProt P26663)
T1 construct: a region encoding NS5B (591 amino acids; J Virol 1991 Mar, 65(3), 1105-13) was amplified by PCR; 6 His (N); made in house; host or cells: Escherichia coli
Assay: biochemical
Settings: HCV polymerase inhibitory activity IC50

T1 sequence (P26663 2420-3010): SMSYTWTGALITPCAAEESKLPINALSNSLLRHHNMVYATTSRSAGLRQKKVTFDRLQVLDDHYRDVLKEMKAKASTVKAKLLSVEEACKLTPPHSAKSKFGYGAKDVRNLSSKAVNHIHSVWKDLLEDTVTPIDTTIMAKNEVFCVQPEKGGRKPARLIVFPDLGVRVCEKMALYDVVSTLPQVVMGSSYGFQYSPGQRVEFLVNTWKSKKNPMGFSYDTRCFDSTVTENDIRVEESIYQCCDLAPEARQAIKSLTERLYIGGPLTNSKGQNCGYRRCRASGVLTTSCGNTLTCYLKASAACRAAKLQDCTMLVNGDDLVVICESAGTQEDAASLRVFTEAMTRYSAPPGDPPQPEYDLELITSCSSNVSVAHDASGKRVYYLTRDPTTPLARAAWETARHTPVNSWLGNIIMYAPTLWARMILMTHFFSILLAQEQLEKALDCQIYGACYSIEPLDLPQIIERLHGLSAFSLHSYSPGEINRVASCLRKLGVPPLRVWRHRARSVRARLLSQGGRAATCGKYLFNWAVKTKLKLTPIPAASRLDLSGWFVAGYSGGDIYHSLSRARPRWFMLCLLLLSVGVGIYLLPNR

Q: Which IC50 does the source give for CN(C)C(=O)c1ccc(-c2ccc(Cl)cc2)c(COc2ccc(-c3nc4cc(C(=O)O)ccc4n3C3CCCCC3)cc2)c1 [Example 232, 2-{4-[2-(4-chlorophenyl)-5-dimethylcarbamoylbenzyloxy]phenyl}-1-cyclohexylbenzimidazole-5-carboxylic acid] here?
A: 15 nM

Same assay, conditions: read-out: HCV polymerase inhibitory activity IC50

Q: CC(C)NC(=O)c1ccc(-c2ccc(F)c(Cl)c2)c(COc2ccc(-c3nc4cc(C(=O)O)ccc4n3C3CCCCC3)c(F)c2)c1 [Example 399, 2-{4-[2-(3-chloro-4-fluorophenyl)-5-(isopropylcarbamoyl)-benzyloxy]-2-fluorophenyl}-1-cyclohexylbenzimidazole-5-carboxylic acid hydrochloride] was tested. Which IC50 did it give?
A: 32 nM

Q: Which IC50 does the source give for CCC(=O)N(CC)c1ccc(-c2ccc(Cl)cc2)c(COc2ccc(-c3nc4cc(C(=O)O)ccc4n3C3CCCCC3)c(F)c2)c1 [Example 467, 2-[4-{2-(4-chlorophenyl)-5-[N-ethyl-N-(ethylcarbonyl)amino]-benzyloxy}-2-fluorophenyl]-1-cyclohexylbenzimidazole-5-carboxylic acid hydrochloride] here?
A: 32 nM

Q: How did the IC50 turn out when CC(=O)N[C@@H](COc1ccc(-c2nc3cc(C(=O)O)ccc3n2C2CCCCC2)cc1)c1ccccc1 [Example 162, 2-{4-[(2R)-2-acetylamino-2-phenylethoxy]phenyl}-1-cyclohexylbenzimidazole-5-carboxylic acid] was run?
A: 430 nM

Q: For O=C(O)c1ccc2c(c1)nc(-c1ccc(OC[C@@H]3CCCN3S(=O)(=O)c3ccccc3)cc1)n2C1CCCCC1 [Example 193, 2-{4-[{(2S)-1-benzenesulfonyl-2-pyrrolidinyl}methoxy]phenyl}-1-cyclohexylbenzimidazole-5-carboxylic acid], which IC50 is on record?
A: 130 nM

Q: With O=C(O)c1ccc2c(c1)nc(-c1ccc(Oc3cccc(O)c3)cc1)n2C1CCCCC1 [Example 107, 1-cyclohexyl-2-[4-(3-hydroxyphenoxy)phenyl]benzimidazole-5-carboxylic acid] as the compound, how does the IC50 read?
A: 110 nM

Q: Which IC50 does the source give for O=C(O[C@@H]1O[C@H](C(=O)O)[C@@H](O)[C@H](O)[C@H]1O)c1ccc2c(c1)nc(-c1ccc(OC(c3cccc(F)c3)c3cccc(F)c3)cc1F)n2C1CCCCC1 [Example 445, {[2-{4-[bis(3-fluorophenyl)methoxy]-2-fluorophenyl}-1-cyclohexylbenzimidazol-5-yl]carbonyl}-β-D-glucuronic acid] here?
A: 330 nM

Q: O=C(O)c1ccc2c(c1)nc(-c1ccc(OCCc3cccc(OCc4ccccc4)c3)cc1)n2C1CCCCC1 [Example 139, 2-{4-[2-(3-benzyloxyphenyl)ethoxy]phenyl}-1-cyclohexylbenzimidazole-5-carboxylic acid] was tested. Which IC50 did it give?
A: 260 nM

Q: How did the IC50 turn out when CS(=O)(=O)c1ccc(-c2ccc(Cl)cc2COc2ccc(-c3nc4cc(C(=O)O)ccc4n3C3CCCCC3)cc2)cc1 [Example 167, 2-{4-[3-chloro-6-(4-methanesulfonylphenyl)benzyloxy]phenyl}-1-cyclohexylbenzimidazole-5-carboxylic acid] was run?
A: 33 nM

Q: With CNC(=O)c1ccc(-c2ccc(Cl)cc2)c(COc2ccc(-c3nc4cc(C(=O)O)ccc4n3C3CCCCC3)cc2)c1 [Example 248, 2-{4-[2-(4-chlorophenyl)-5-methylcarbamoylbenzyloxy]phenyl}-1-cyclohexylbenzimidazole-5-carboxylate hydrochloride] as the compound, how does the IC50 read?
A: 12 nM

Q: Which IC50 does the source give for O=C(O)c1ccc2c(c1)nc(-c1ccc(OCc3cc(-c4nnn[nH]4)ccc3-c3ccc(Cl)cc3)cc1)n2C1CCCCC1 [Example 367, 2-{4-[2-(4-chlorophenyl)-5-tetrazol-5-ylbenzyloxy]phenyl}-1-cyclohexylbenzimidazole-5-carboxylic acid hydrochloride] here?
A: 11 nM

Q: For O=C(O)c1ccc2c(c1)nc(-c1ccc(OCc3cc(Cl)ccc3Br)cc1)n2C1CCCCC1 [Example 173, 2-[4-(2-bromo-5-chlorobenzyloxy)phenyl]-1-cyclohexylbenzimidazole-5-carboxylic acid], which IC50 is on record?
A: 140 nM

Q: How did the IC50 turn out when CN1CCN(C(=O)c2ccc(-c3ccc(Cl)cc3)c(COc3ccc(-c4nc5cc(C(=O)O)ccc5n4C4CCCCC4)cc3)c2)CC1 [Example 321, 2-{4-[2-(4-chlorophenyl)-5-(4-methylpiperazin-1-ylcarbonyl)benzyloxy]phenyl}-1-cyclohexylbenzimidazole-5-carboxylic acid dihydrochloride] was run?
A: 15 nM

Q: For COc1cc(OCc2ccccc2)ccc1-c1nc2cc(C(=O)O)ccc2n1C1CCCCC1 [Example 179, 2-(4-benzyloxy-2-methoxyphenyl)-1-cyclohexylbenzimidazole-5-carboxylic acid], which IC50 is on record?
A: 630 nM

Q: Which IC50 does the source give for CC(=O)N(C)c1ccc(-c2ccc(Cl)cc2)c(COc2ccc(-c3nc4cc(C(=O)O)ccc4n3C3CCCCC3)c(F)c2)c1 [Example 463, 2-[4-{2-(4-chlorophenyl)-5-(N-acetyl-N-methylamino)benzyloxy}-2-fluorophenyl]-1-cyclohexylbenzimidazole-5-carboxylic acid hydrochloride] here?
A: 26 nM

Q: Which IC50 does the source give for CSc1ccc(-c2ccc(Cl)cc2COc2ccc(-c3nc4cc(C(=O)O)ccc4n3C3CCCCC3)cc2)cc1 [Example 166, 2-{4-[3-chloro-6-(4-methylthiophenyl)benzyloxy]phenyl}-1-cyclohexylbenzimidazole-5-carboxylic acid] here?
A: 55 nM

Q: For O=C(O)c1ccc2c(c1)nc(-c1ccc(Oc3cccc(OCc4ccccc4Cl)c3)cc1)n2C1CCCCC1 [Example 213, 2-{4-[3-(2-chlorobenzyloxy)phenoxy]phenyl}-1-cyclohexylbenzimidazole-5-carboxylic acid], which IC50 is on record?
A: 100 nM

Q: Which IC50 does the source give for O=C(O)c1ccc2c(c1)nc(-c1ccc(Oc3cccc(-c4cc(Cl)cc(Cl)c4)c3)cc1)n2C1CCCCC1 [Example 222, 1-cyclohexyl-2-{4-[3-(3,5-dichlorophenyl)phenoxy]phenyl}-benzimidazole-5-carboxylic acid] here?
A: 41 nM

Q: How did the IC50 turn out when N/C(=N\O)c1ccc(-c2ccc(Cl)cc2)c(COc2ccc(-c3nc4cc(C(=O)O)ccc4n3C3CCCCC3)c(F)c2)c1 [Example 373, 2-{4-[2-(4-chlorophenyl)-5-(N-hydroxyamidino)benzyloxy]-2-fluorophenyl}-1-cyclohexylbenzimidazole-5-carboxylic acid dihydrochloride] was run?
A: 13 nM

Q: With CC(C)CNC(=O)c1ccc(-c2ccc(Cl)cc2)c(COc2ccc(-c3nc4cc(C(=O)O)ccc4n3C3CCCCC3)c(F)c2)c1 [Example 380, 2-{4-[2-(4-chlorophenyl)-5-(isobutylcarbamoyl)benzyloxy]-2-fluorophenyl}-1-cyclohexylbenzimidazole-5-carboxylic acid hydrochloride] as the compound, how does the IC50 read?
A: 23 nM

Q: How did the IC50 turn out when COc1ccc(-c2ccc(Cl)cc2)c(COc2ccc(-c3nc4cc(C(=O)O)cnc4n3C3CCCCC3)cc2)c1 [Example 701, 2-{4-[2-(4-chlorophenyl)-5-methoxybenzyloxy]phenyl}-3-cyclohexyl-3H-imidazo[4,5-b]pyridine-6-carboxylic acid] was run?
A: 52 nM

Q: CC(C)N(C)C(=O)c1ccc(-c2ccc(Cl)cc2)c(COc2ccc(-c3nc4cc(C(=O)O)ccc4n3C3CCCCC3)cc2)c1 [Example 331, 2-{4-[2-(4-chlorophenyl)-5-(N-isopropyl-N-methylcarbamoyl)-benzyloxy]phenyl}-1-cyclohexylbenzimidazole-5-carboxylic acid hydrochloride] was tested. Which IC50 did it give?
A: 17 nM

Q: Which IC50 does the source give for CN(C)C(=O)c1ccc(-c2cccnc2)c(COc2ccc(-c3nc4cc(C(=O)O)ccc4n3C3CCCCC3)cc2)c1 [Example 272, 2-{4-[3-dimethylcarbamoyl-6-(3-pyridyl)benzyloxy]phenyl}-1-cyclohexylbenzimidazole-5-carboxylic acid dihydrochloride] here?
A: 66 nM

Q: How did the IC50 turn out when O=C(O)c1ccc2c(c1)nc(-c1ccc(Oc3ccccc3OCCc3ccccc3)cc1)n2C1CCCCC1 [Example 123, 1-cyclohexyl-2-[4-(2-phenethyloxyphenoxy)phenyl]benzimidazole-5-carboxylic acid] was run?
A: 100 nM

Q: With COc1ccc(-c2cccc(Oc3ccc(-c4nc5cc(C(=O)O)ccc5n4C4CCCCC4)cc3)c2)cc1 [Example 216, 1-cyclohexyl-2-{4-[3-(4-methoxyphenyl)phenoxy]phenyl}-benzimidazole-5-carboxylic acid] as the compound, how does the IC50 read?
A: 84 nM

Q: How did the IC50 turn out when O=C(O)c1ccc2c(c1)nc(-c1ccc(OCc3cc(N4CCNC4=O)ccc3-c3ccc(Cl)cc3)cc1F)n2C1CCCCC1 [Example 424, 2-{4-[2-(4-chlorophenyl)-5-(2-oxoimidazolidin-1-yl)benzyloxy]-2-fluorophenyl}-1-cyclohexylbenzimidazole-5-carboxylic acid hydrochloride] was run?
A: 20 nM

Q: For O=C(O)c1ccc2c(c1)nc(-c1ccc(OCC(=O)c3ccccc3)cc1)n2C1CCCCC1 [Example 91, 2-(4-benzoylmethoxyphenyl)-1-cyclohexylbenzimidazole-5-carboxylic acid], which IC50 is on record?
A: 530 nM

Q: Which IC50 does the source give for O=C(O)c1ccc2c(c1)nc(-c1ccc(OCc3ccc(C(=O)NCc4ccncc4)cc3-c3ccc(Cl)cc3)cc1)n2C1CCCCC1 [Example 356, 2-{4-[2-(4-chlorophenyl)-4-{(4-pyridylmethyl)carbamoyl}-benzyloxy]phenyl}-1-cyclohexylbenzimidazole-5-carboxylic acid] here?
A: 16 nM

Q: O=C(O)c1ccc2c(c1)nc(-c1ccc(OCc3cc(OCCO)ccc3-c3ccc(Cl)cc3)cc1)n2C1CCCCC1 [Example 335, 2-{4-[2-(4-chlorophenyl)-5-(2-hydroxyethoxy)benzyloxy]phenyl}-1-cyclohexylbenzimidazole-5-carboxylic acid hydrochloride] was tested. Which IC50 did it give?
A: 13 nM

Q: For O=C(O)c1ccc2c(c1)nc(-c1ccc(OCc3cc(NC(=O)N4CCOCC4)ccc3-c3ccc(Cl)cc3)cc1F)n2C1CCCCC1 [Example 392, 2-{4-[2-(4-chlorophenyl)-5-{(morpholinocarbonyl)amino}benzyloxy]-2-fluorophenyl}-1-cyclohexylbenzimidazole-5-carboxylic acid hydrochloride], which IC50 is on record?
A: 14 nM

Q: Which IC50 does the source give for O=C(O)c1ccc2c(c1)nc(-c1ccc(OCc3cc(C(=O)NCCO)ccc3-c3ccc(Cl)cc3)cc1F)n2C1CCCCC1 [Example 288, 2-{4-[2-(4-chlorophenyl)-5-(2-hydroxyethyl)carbamoylbenzyloxy]-2-fluorophenyl}-1-cyclohexylbenzimidazole-5-carboxylic acid] here?
A: 13 nM
